Assay results published in patent publication US8304206B2, “Mass spectrometry assays for identifying compounds that activate deacetylases” (Sirtris Pharmaceuticals, Inc., priority 2005, dated 2012).

Biological target: T1, SIRT1 (Homo sapiens, UniProt Q96EB6)
T1 sequence (Q96EB6 1-747): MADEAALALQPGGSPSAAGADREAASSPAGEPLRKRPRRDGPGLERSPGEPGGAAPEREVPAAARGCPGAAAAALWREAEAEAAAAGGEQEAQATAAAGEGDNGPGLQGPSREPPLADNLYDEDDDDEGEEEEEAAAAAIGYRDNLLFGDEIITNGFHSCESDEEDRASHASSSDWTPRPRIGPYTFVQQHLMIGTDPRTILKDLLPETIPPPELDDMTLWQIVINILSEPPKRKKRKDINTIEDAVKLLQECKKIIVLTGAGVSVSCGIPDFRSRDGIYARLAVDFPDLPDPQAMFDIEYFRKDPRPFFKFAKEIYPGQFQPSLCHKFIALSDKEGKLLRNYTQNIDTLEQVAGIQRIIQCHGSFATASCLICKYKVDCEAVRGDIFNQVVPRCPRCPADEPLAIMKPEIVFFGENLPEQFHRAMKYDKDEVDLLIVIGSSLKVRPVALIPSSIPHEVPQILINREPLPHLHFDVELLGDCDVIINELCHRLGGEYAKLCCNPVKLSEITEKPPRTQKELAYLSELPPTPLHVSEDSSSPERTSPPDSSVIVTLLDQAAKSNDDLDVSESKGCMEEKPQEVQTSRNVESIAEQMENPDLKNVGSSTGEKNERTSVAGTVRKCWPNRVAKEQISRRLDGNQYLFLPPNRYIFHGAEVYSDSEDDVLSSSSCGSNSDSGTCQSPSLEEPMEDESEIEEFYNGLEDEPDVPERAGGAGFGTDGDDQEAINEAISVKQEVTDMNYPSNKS
Assay: SIRT1 mass spectrometry assay (screening for activation)
Assay type: biochemical
Conditions: for FOLD ACTIVATION MS: activation of SIRT1, mass spectrometry; for EC50: activation of SIRT1, 0.5 μM peptide substrate (SEQ ID NO: 34), 120 μM NAD+, 10 nM SIRT1, 25 min, read-out: ED50 MS ASSAY

FOLD ACTIVATION MS | EC50 | Structure (SMILES)
B (Fold Activation<250%) |  | COc1ccc(C(=O)Nc2cccc(-c3nc4ncccc4o3)n2)c(OC)c1 [compound 69]
B (Fold Activation<250%) |  | CN(C)c1ccc(C(=O)Nc2cccc(-c3nc4ncccc4o3)n2)cc1 [compound 70]
B (Fold Activation<250%) |  | O=C(Nc1ccc2c(c1)OCO2)Nc1cccc(-c2nc3ncccc3o2)n1 [compound 71]
B (Fold Activation<250%) |  | COc1cc(C(=O)Nc2cc(-c3nc4ncccc4o3)ccn2)cc(OC)c1OC [compound 75]
B (Fold Activation<250%) |  | CN(C)c1cccc(C(=O)Nc2cc(-c3nc4ncccc4o3)ccn2)c1 [compound 76]
B (Fold Activation<250%) |  | COc1ccc(C(=O)Nc2cccc(-c3csc(C)n3)c2)cc1OC [compound 80]
B (Fold Activation<250%) |  | COc1ccc(C(=O)Nc2cccc(-c3csc(C)n3)c2)c(OC)c1 [compound 81]
B (Fold Activation<250%) |  | COc1cc(SC)ccc1C(=O)Nc1cccc(-c2nncn2C)c1 [compound 83]
B (Fold Activation<250%) |  | COc1ccc(C(=O)Nc2cccc(-c3csc(-c4ccccc4)n3)c2)cc1OC [compound 84]
B (Fold Activation<250%) |  | Cc1nc(-c2cccc(Nc3nc4ccccc4o3)c2)cs1 [compound 92]
B (Fold Activation<250%) |  | c1cc(Nc2nc3ccccc3o2)cc(-c2nc3ncccc3o2)c1 [compound 93]
B (Fold Activation<250%) | < 50 µM | c1cc(Nc2nc3ccccc3s2)cc(-c2nc3ncccc3o2)c1 [compound 95]
B (Fold Activation<250%) | < 50 µM | COc1ccc(C(=O)Nc2ccccc2-c2nc3ncccc3o2)cc1OC [compound 96]
B (Fold Activation<250%) | < 50 µM | CN(C)c1cccc(C(=O)Nc2ccccc2-c2nc3ncccc3o2)c1 [compound 97]
A (Fold activation>250%) | < 50 µM | O=C(Nc1cccc(-c2nc3ccncc3s2)c1)Nc1ccc2c(c1)OCO2 [compound 99]
B (Fold Activation<250%) |  | COc1ccc(NC(=O)c2cccc(-c3nc4ncccc4o3)c2)c(OC)c1 [compound 100]
A (Fold activation>250%) |  | COc1ccc(NC(=O)c2cccc(-c3nc4ncccc4o3)c2)cc1OC [compound 101]
A (Fold activation>250%) |  | COc1cc(NC(=O)c2cccc(-c3nc4ncccc4o3)c2)cc(OC)c1OC [compound 102]
B (Fold Activation<250%) | < 50 µM | c1cc(Nc2nc3ccccc3s2)nc(-c2nc3ncccc3o2)c1 [compound 104]
B (Fold Activation<250%) | < 50 µM | c1cc(Nc2nc3ccccc3o2)nc(-c2nc3ncccc3o2)c1 [compound 105]
B (Fold Activation<250%) | < 50 µM | COc1cc(C(=O)Nc2ccccc2-c2nc3ncccc3o2)cc(OC)c1OC [compound 106]
B (Fold Activation<250%) | < 50 µM | COc1cc(OC)cc(C(=O)Nc2ccccc2-c2nc3ccccc3[nH]2)c1 [compound 141]
A (Fold activation>250%) | < 50 µM | COc1ccc(C(=O)Nc2ccccc2-c2nc3ccccc3[nH]2)cc1OC [compound 142]
B (Fold Activation<250%) | < 50 µM | COc1ccc(C(=O)Nc2sccc2-c2nc3ccccc3s2)cc1OC [compound 145]
B (Fold Activation<250%) | < 50 µM | COc1cc(OC)cc(C(=O)Nc2sccc2-c2nc3ccccc3s2)c1 [compound 146]
B (Fold Activation<250%) | < 50 µM | COc1cc(C)ccc1C(=O)Nc1ccc(-c2nc3cccnc3[nH]2)cc1 [compound 149]

Structure (SMILES) | FOLD ACTIVATION MS | EC50
COc1ccc(C(=O)Nc2cc(-c3nc4ccccc4o3)ccn2)cc1OC [compound 77] | B (Fold Activation<250%) | 
